Measured values reported in patent US11174252B2, “Heterocyclic compounds as kinase inhibitors” (priority 2018, dated 2021).
Read-outs that look alike come from different tables or passages of the source.

Legend:
[1] = biological target: CDK4 (Homo sapiens (Human), UniProt P11802); experiment: In vitro kinase inhibition, luminescence (ADP-Glo) with retinoblastoma substrate; format: biochemical
[2] = biological target: CDK6 (Homo sapiens (Human), UniProt Q00534); experiment: biochemical; format: biochemical
[3] = biological target: FMS kinase (Homo sapiens (Human), UniProt P07333); experiment: LanthaScreen kinase assay (ATP, fluorescent-PolyGT substrate, TR-FRET); format: biochemical
Chain of FMS kinase (P07333 20-972): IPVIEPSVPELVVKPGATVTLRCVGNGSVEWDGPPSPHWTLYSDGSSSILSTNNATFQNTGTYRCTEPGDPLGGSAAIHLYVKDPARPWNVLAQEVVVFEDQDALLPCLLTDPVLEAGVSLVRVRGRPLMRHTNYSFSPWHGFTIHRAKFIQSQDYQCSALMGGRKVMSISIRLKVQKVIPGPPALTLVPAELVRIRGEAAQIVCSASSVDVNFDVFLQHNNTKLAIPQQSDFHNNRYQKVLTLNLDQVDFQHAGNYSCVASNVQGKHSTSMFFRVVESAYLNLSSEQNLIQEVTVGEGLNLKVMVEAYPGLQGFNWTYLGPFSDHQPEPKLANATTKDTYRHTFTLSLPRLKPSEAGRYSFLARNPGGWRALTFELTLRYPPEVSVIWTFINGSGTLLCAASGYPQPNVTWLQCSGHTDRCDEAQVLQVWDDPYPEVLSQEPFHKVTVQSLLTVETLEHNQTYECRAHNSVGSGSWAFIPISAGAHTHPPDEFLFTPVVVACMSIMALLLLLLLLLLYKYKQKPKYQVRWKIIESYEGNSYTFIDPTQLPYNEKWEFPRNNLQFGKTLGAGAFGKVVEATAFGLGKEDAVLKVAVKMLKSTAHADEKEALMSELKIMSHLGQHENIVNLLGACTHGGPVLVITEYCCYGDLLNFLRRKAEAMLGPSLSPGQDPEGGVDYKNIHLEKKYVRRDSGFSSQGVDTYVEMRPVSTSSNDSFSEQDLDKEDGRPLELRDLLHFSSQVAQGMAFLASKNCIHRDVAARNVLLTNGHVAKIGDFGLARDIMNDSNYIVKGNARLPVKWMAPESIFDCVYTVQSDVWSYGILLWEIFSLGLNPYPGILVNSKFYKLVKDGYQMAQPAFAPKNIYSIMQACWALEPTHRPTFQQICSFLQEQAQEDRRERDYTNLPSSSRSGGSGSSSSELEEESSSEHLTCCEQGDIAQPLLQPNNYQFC

[4] = system: MCF-7; experiment: Cancer cell proliferation assay, single agent; format: cell-based; conditions: Homo sapiens
[5] = system: DU4475; experiment: Cancer cell proliferation assay, single agent; format: cell-based; conditions: Homo sapiens
[6] = MCF7, read-out: IC50 (nM) MCF-7
[7] = MCF7, MCF-7 cells, treated for 24-168 hours, read-out: IC50 (nM) MCF-7
[8] = DU-4475, read-out: IC50 (nM) DU4475
[9] = DU-4475, DU4475 cells, treated for 24-168 hours, read-out: IC50 (nM) DU4475

Chain of CDK4 (P11802 whole entry): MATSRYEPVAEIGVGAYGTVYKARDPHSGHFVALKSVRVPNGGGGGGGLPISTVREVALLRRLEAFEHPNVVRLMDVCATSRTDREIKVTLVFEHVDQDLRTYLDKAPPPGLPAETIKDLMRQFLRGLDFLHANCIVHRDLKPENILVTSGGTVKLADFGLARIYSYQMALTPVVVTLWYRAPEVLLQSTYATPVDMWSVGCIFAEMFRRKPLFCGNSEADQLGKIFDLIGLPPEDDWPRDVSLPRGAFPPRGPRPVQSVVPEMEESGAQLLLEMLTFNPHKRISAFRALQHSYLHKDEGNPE
Chain of CDK4 (P24385 whole entry partner): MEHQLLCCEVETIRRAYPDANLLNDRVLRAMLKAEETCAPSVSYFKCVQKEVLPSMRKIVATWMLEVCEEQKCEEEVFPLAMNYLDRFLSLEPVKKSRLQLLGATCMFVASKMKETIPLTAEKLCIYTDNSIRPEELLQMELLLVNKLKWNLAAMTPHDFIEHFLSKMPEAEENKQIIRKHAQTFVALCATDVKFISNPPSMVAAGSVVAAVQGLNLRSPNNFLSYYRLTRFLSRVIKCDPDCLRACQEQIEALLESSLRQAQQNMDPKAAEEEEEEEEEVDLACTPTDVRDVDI

Compound | IC50 [1] | IC50 [2] | IC50 [3] | IC50 [4, 6] | IC50 [4, 7] | IC50 [5, 8] | IC50 [5, 9]
CC(C)N1C(=O)COc2c(F)cc(-c3nc(Nc4ccc(N5CCNCC5)cn4)ncc3F)cc21 [Compound 2, 8-fluoro-6-(5-fluoro-2-(5-(piperazin-1-yl)pyridin-2-ylamino)pyrimidin-4-yl)-4-isopropyl-2H-benzo[b][1,4]oxazin-3(4H)-one] | 6 nM | 6.9 nM | > 5000 nM | – | – | – | –
Fc1cnc(Nc2ccc(N3CCNCC3)cn2)nc1-c1cc(F)c2c(c1)NCCO2 [Compound 3, 5-fluoro-4-(8-fluoro-3,4-dihydro-2H-benzo[b][1,4]oxazin-6-yl)-N-(5 (piperazin-1-yl)pyridin-2-yl)pyrimidin-2-amine] | 3 nM | 5.7 nM | > 5000 nM | – | – | – | –
CCN1CCN(Cc2ccc(Nc3ncc(F)c(-c4cc(F)c5c(c4)N(C4CCC(N)CC4)CCO5)n3)nc2)CC1 (stereo not shown) [Compound 9, 4-(4-(4-aminocyclohexyl)-8-fluoro-3,4-dihydro-2H-benzo[b][, 4]oxazin-6-yl)-N-(5-((4-ethylpiperazin-1-yl)methyl)pyridin-2-yl)-5-fluoropyrimidin-2-amine] | > 183 nM | 173 nM | > 5000 nM | 3260 nM | – | – | –
CC1CN(c2ccc(Nc3ncc(F)c(-c4cc(F)c5c(c4)N(C(C)C)CCO5)n3)nc2)CCN1 (stereo not shown) [Compound 10, 5-fluoro-4-(8-fluoro-4-isopropyl-3,4-dihydro-2H-benzo[b][1,4]oxazin-6-yl)-N-(5-(3-methylpiperazin-1-yl)pyridin-2-yl)pyrimidin-2-amine] | 4.5 nM | 2.5 nM | 570 nM | 280 nM | – | – | –
CC(C)N1CCOc2c(F)cc(-c3nc(Nc4ccc(N5CCNCC5)c(F)c4)ncc3Cl)cc21 [Compound 30, 5-chloro-N-(3-fluoro-4-(piperazin-1-yl)phenyl)-4-(8-fluoro-4-isopropyl-3,4-dihydro-2H-benzo[b][1,4]oxazin-6-yl)pyrimidin-2-amine] | 1 nM | 13 nM | 79 nM | 233 nM | – | – | –
CC1CN(C(C)C)c2cc(-c3nc(Nc4ccc(N5CCNCC5)c(F)c4)ncc3F)cc(F)c2O1 (stereo not shown) [Compound 32, 5-fluoro-N-(3-fluoro-4-(piperazin-1-yl)phenyl)-4-(8-fluoro-4-isopropyl-2-methyl-3,4-dihydro-2H-benzo[b][1,4]oxazin-6-yl)pyrimidin-2-amine] | 12 nM | 21 nM | 177 nM | – | 130 nM | – | –
CN1CCOc2c(F)cc(-c3nc(Nc4ccc(N5CCNCC5)c(F)c4)ncc3F)cc21 [Compound 34, 5-fluoro-N-(3-fluoro-4-(piperazin-1-yl)phenyl)-4-(8-fluoro-4-methyl-3,4-dihydro-2H-benzo[b][1,4]oxazin-6-yl)pyrimidin-2-amine] | 3 nM | 6 nM | 42 nM | 50 nM | – | – | –
CCN1CCOc2c(F)cc(-c3nc(Nc4ccc(N5CCNCC5)c(F)c4)ncc3F)cc21 [Compound 35, 4-(4-ethyl-8-fluoro-3,4-dihydro-2H-benzo[b][1,4]oxazin-6-yl)-5-fluoro-N-(3-fluoro-4-(piperazin-1-yl)phenyl)pyrimidin-2-amine] | 2.5 nM | 3 nM | 58 nM | 20 nM | – | – | –
CCCN1CCOc2c(F)cc(-c3nc(Nc4ccc(N5CCNCC5)c(F)c4)ncc3F)cc21 [Compound 36, 5-fluoro-N-(3-fluoro-4-(piperazin-1-yl)phenyl)-4-(8-fluoro-4-propyl-3,4-dihydro-2H-benzo[b][1,4]oxazin-6-yl)pyrimidin-2-amine] | 4 nM | 5 nM | 102 nM | 40 nM | – | – | –
CC(C)N1CCOc2c(F)cc(-c3nc(Nc4ccc5c(c4)CCC(N(C)C)C5)ncc3F)cc21 (stereo not shown) [Compound 47, N6-(5-fluoro-4-(8-fluoro-4-isopropyl-3,4-dihydro-2H-benzo[b][1,4]oxazin-6-yl)pyrimidin-2-yl)-N2,N2-dimethyl-1,2,3,4-tetrahydronaphthalene-2,6-diamine] | 3.5 nM | 4 nM | 2.5 nM | – | 20 nM | – | –
CC(C)N1CCOc2c(Cl)cc(-c3nc(Nc4ccc(N5CCNCC5)c(F)c4)ncc3Cl)cc21 [Compound 52, 5-chloro-4-(8-chloro-4-isopropyl-3,4-dihydro-2H-benzo[b][1,4]oxazin-6-yl)-N-(3-fluoro-4-(piperazin-1-yl)phenyl)pyrimidin-2-amine] | 89 nM | 200 nM | 14 nM | – | 695 nM | – | –
CC(C)N1CCOc2c(F)cc(-c3nc(Nc4ccc5c(c4)CC(N(C)C)CC5)ncc3F)cc21 (stereo not shown) [Compound 206, N7-(5-fluoro-4-(8-fluoro-4-isopropyl-3,4-dihydro-2H-benzo[b][1,4]oxazin-6-yl)pyrimidin-2-yl)-N2,N2-dimethyl-1,2,3,4-tetrahydronaphthalene-2,7-diamine] | 56 nM | 100 nM | 2.5 nM | – | 670 nM | – | –
CC(C)N1CCOc2c(F)cc(-c3nc(Nc4ccc(C5CCNCC5)c(C(F)(F)F)c4)ncc3F)cc21 [Compound 438, 5-fluoro-4-(8-fluoro-4-isopropyl-3,4-dihydro-2H-benzo[b][1,4]oxazin-6-yl)-N-(4-(piperidin-4-yl)-3-(trifluoromethyl)phenyl)pyrimidin-2-amine] | 41 nM | 74 nM | 5 nM | – | 200 nM | – | –
CC(C)N1CCOc2c(F)cc(-c3nc(Nc4ccc(C(=O)N5CCC(O)CC5)cn4)ncc3F)cc21 [Compound 460, (6-((5-fluoro-4-(8-fluoro-4-isopropyl-3,4-dihydro-2H-benzo[b][1,4]oxazin-6-yl)pyrimidin-2-yl)amino)pyridin-3-yl)(4-hydroxypiperidin-1-yl)methanone] | 13 nM | 18 nM | > 5000 nM | – | 595 nM | – | –
CC(C)N1CCOc2c(F)cc(-c3nc(Nc4cn(C5CCN(C)CC5)cn4)ncc3F)cc21 [Compound 496, 5-fluoro-4-(8-fluoro-4-isopropyl-3,4-dihydro-2H-benzo[b][1,4]oxazin-6-yl)-N-(1-(1-methylpiperidin-4-yl)-1H-imidazol-4-yl)pyrimidin-2-amine] | – | – | – | 1450 nM | – | 3420 nM | –
CCN1CCC(c2ccc(Nc3ncc(F)c(-c4cc(F)c5c(c4)N(C(C)C)CCO5)n3)nc2)CC1 [Compound 501, N-(5-(1-ethylpiperidin-4-yl)pyridin-2-yl)-5-fluoro-4-(8-fluoro-4-isopropyl-3,4-dihydro-2H-benzo[b][1,4]oxazin-6-yl)pyrimidin-2-amine] | 2 nM | 5 nM | – | 140 nM | – | 1020 nM | –
Cc1nc(Nc2ncc(F)c(-c3cc(F)c4c(c3)N(C(C)C)CCO4)n2)ccc1C1CCN(C)CC1 [Compound 503, 5-fluoro-4-(8-fluoro-4-isopropyl-3,4-dihydro-2H-benzo[b][1,4]oxazin-6-yl)-N-(6-methyl-5-(1-methylpiperidin-4-yl)pyridin-2-yl)pyrimidin-2-amine] | 5 nM | 18 nM | – | – | 240 nM | – | 1260 nM
CC(C)N1CCOc2c(F)cc(-c3nc(Nc4cn(C5CCNCC5)cn4)ncc3F)cc21 [Compound 504, 5-fluoro-4-(8-fluoro-4-isopropyl-3,4-dihydro-2H-benzo[b][1,4]oxazin-6-yl)-N-(1-(piperidin-4-yl)-1H-imidazol-4-yl)pyrimidin-2-amine] | – | – | – | 1940 nM | – | 4150 nM | –
CC(C)N1CCOc2c(F)cc(-c3nc(Nc4ccc(N5CCN(C(=O)CO)CC5)cn4)ncc3F)cc21 [Compound 506, 1-(4-(6-((5-fluoro-4-(8-fluoro-4-isopropyl-3,4-dihydro-2H-benzo[b][1,4]oxazin-6-yl)pyrimidin-2-yl)amino)pyridin-3-yl)piperazin-1-yl)-2-hydroxyethan-1-one] | – | – | – | – | 354 nM | 1500 nM | –
CC(C)N1CCOc2c(F)cc(-c3nc(Nc4ccc(C5CCN(C(=O)CO)CC5)cn4)ncc3F)cc21 [Compound 510, 1-(4-(6-((5-fluoro-4-(8-fluoro-4-isopropyl-3,4-dihydro-2H-benzo[b][1,4]oxazin-6-yl)pyrimidin-2-yl)amino)pyridin-3-yl)piperidin-1-yl)-2-hydroxyethan-1-one] | 3 nM | 4 nM | – | 293 nM | – | 1970 nM | –
CC1CN(C(=O)c2ccc(Nc3ncc(F)c(-c4cc(F)c5c(c4)N(C(C)C)CCO5)n3)nc2)CC(C)O1 (stereo not shown) [Compound 511, (2,6-dimethylmorpholino)(6-((5-fluoro-4-(8-fluoro-4-isopropyl-3,4-dihydro-2H-benzo[b][1,4]oxazin-6-yl)pyrimidin-2-yl)amino)pyridin-3-yl)methanone] | – | – | – | – | 648 nM | – | 3790 nM
CC(C)N1CCOc2c(F)cc(-c3nc(Nc4cccc(S(N)(=O)=O)c4)ncc3F)cc21 [Compound 520] | – | – | – | – | 13 nM | – | < 7 nM
COCCN1CCN(Cc2ccc(Nc3ncc(F)c(-c4cc(F)c5c(c4)N(C(C)C)CCO5)n3)nc2)CC1 [Compound 524, 5-fluoro-4-(8-fluoro-4-isopropyl-3,4-dihydro-2H-benzo[b][1,4]oxazin-6-yl)-N-(5-((4-(2-methoxyethyl)piperazin-1-yl)methyl)pyridin-2-yl)pyrimidin-2-amine] | 3.5 nM | 7.5 nM | – | – | 332 nM | – | –
CC(C)N1CCOc2c(F)cc(-c3nc(Nc4ccc(C(N)=O)c(F)c4)ncc3F)cc21 [Compound 790, 2-fluoro-4-((5-fluoro-4-(8-fluoro-4-isopropyl-3,4-dihydro-2H-benzo[b][1,4]oxazin-6-yl)pyrimidin-2-yl)amino)benzamide] | – | 3 nM | – | – | 17 nM | – | 20 nM
